For ten compounds, IC50 results are on record in patent publication US10179773B2, “Isoxazole carboxamides as irreversible SMYD inhibitors” (EPIZYME, INC., priority 2014, dated 2019).

Broadly, the IC50 is the concentration that gives 50% inhibition.

For assay [1], the target named is T1, SMYD3 (Homo sapiens (Human), UniProt Q9H7B4). As to the kind of experiment: SMYD3 Biochemical Assay (MEKK2 protein substrate, 3H-SAM, SPA). Particulars: 30 min preincubation with SMYD3, average of n = 1 to n = 50, read-out: SMYD3 Biochem IC50. The text has this: S-adenosylmethionine (SAM), S-adenosylhomocysteine (SAH), Tris, Tween20, dimethylsulfoxide (DMSO), bovine skin gelatin (BSG), and Tris(2-carboxyethyl)phosphine hydrochloride solution (TCEP) were purchased from Sigma-Aldrich at the highest level of purity possible. ^3H-SAM was purchase from American Radiolabeled Chemicals with a specific activity of 80 Ci/mmol. 384-well opaque white OptiPlates and SPA beads (Perkin Elmer, catalog # RPNQ0013) were purchased from PerkinElmer.
T1 sequence (Q9H7B4 whole entry): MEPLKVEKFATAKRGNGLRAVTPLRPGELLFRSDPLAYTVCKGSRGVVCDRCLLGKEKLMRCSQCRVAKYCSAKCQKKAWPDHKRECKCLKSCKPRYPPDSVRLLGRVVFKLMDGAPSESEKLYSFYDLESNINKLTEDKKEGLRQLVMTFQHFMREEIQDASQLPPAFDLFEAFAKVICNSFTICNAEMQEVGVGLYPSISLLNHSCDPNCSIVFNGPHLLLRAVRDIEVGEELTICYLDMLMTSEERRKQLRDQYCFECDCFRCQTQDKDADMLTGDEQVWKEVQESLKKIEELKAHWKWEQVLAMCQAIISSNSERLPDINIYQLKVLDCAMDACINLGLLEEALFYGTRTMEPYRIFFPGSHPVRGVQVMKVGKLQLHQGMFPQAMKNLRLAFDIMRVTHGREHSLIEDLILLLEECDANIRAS
N-terminally GST-tagged MEKK2 (MAP3K2) protein corresponding to reference sequence AAF63496.3 was purchased from Life Technologies (catalog # PV4010). This protein was expressed in High Five insect cells and purified to >85% purity. Protein identity was confirmed by MS/MS analysis after proteolytic digestion. The protein sequence used was:
Full-length human SMYD3 isoform 1 (BAB86333) was inserted into a modified pET21b plasmid containing a His6 tag and TEV and SUMO cleavage sites. Because two common variants of SMYD3 exist in the population, site directed mutagenesis was subsequently performed to change amino acid 13 from an asparagine to a lysine, resulting in plasmid pEPZ533. A lysine at position 13 conforms to the more commonly occurring sequence (NP_001161212).
E. coli (BL21 codonplus RIL strain, Stratagene) were transformed with plasmid pEPZ553 by mixing competent cells and plasmid DNA and incubating on ice for 30 minutes followed by heat shock at 42° C. for 1 minute and cooling on ice for 2 minutes. Transformed cells were grown and selected on LB agar with 100 μg/mL ampicillin and 17 μg/mL chloramphenicol at 37° C. overnight. A single clone was used to inoculate 200 mL of LB medium with 100 μg/mL ampicillin and 17 μg/mL chloramphenicol and incubated at 37° C. on an orbital shaker at 180 rpm. Once in log growth, the culture was diluted 1:100 into 2 L of LB medium and grown until OD600 was about 0.3 after which the culture was incubated at 15° C. and 160 rpm. Once OD600 reached about 0.4, IPTG was added to a final concentration of 0.1 mM and the cells were grown overnight at 15° C. and 160 rpm. Cells were harvested by centrifugation at 8000 rpm, for 4 minutes at 4° C. and stored at −80° C. for purification.
Expressed full-length human His-tagged SMYD3 protein was purified from cell paste by Nickel affinity chromatography after equilibration of the resin with Buffer A (25 mM Tris, 200 mM NaCl, 5% glycerol, 5 mM β-mercaptoethanol, pH7.8). The column was washed with Buffer B (Buffer A plus 20 mM imidazole) and His-tagged SMYD3 was eluted with Buffer C (Buffer A plus 300 mM imidazole). The His tag, TEV and SUMO cleavage sites were removed generating native SMYD3 by addition of ULP1 protein at a ratio of 1:200 (ULP1:SMYD3). Imidazole was removed by dialysis overnight in Buffer A. The dialyzed solution was applied to a second Nickel column and the native SMYD3 protein was collected from the column flow-through. The flow-through was dialyzed in Buffer D (25 mM Tris, 5% glycerol, 5 mM β-mercaptoethanol, 50 mM NaCl, pH7.8) and ULP1 was removed using a Q sepharose fast flow column. SMYD3 was eluted in Buffer A and further purified using an S200 size-exclusion column equilibrated with Buffer A. SMYD3 was concentrated to 2 mg/mL with a final purity of 89%.
The assays were all performed in a buffer consisting of 25 mM Tris-Cl pH 8.0, 1 mM TCEP, 0.005% BSG, and 0.005% Tween 20, prepared on the day of use. Compounds in 100% DMSO (1 ul) were spotted into a 384-well white opaque OptiPlate using a Bravo automated liquid handling platform outfitted with a 384-channel head (Agilent Technologies). DMSO (1 ul) was added to Columns 11, 12, 23, 24, rows A-H for the maximum signal control and 1 ul of SAH, a known product and inhibitor of SMYD3, was added to columns 11, 12, 23, 24, rows I-P for the minimum signal control. A cocktail (40 ul) containing the SMYD3 enzyme was added by Multidrop Combi (Thermo-Fisher). […]

Assay [2] deals with T1, SMYD3. As to the kind of experiment: SMYD3 Cell Assay (Trimethyl-MEKK2 In-Cell Western, 293T/17 cells). It is filed as cell-based. The note with it: 293T/17 cells transfected with MEKK2-flag and SMYD3; 24 hours; trimethyl-MEKK2 signal; average of n = 1 to n = 50. An excerpt: 293T/17 adherent cells were purchased from ATCC (American Type Culture Collection), Manassas, Va., USA. MEM/Glutamax medium, Optimem Reduced Serum medium, penicillin-streptomycin, 0.05% trypsin and 1× D-PBS were purchased from Life Technologies, Grand Island, N.Y., USA. PBS-10× was purchased from Ambion, Life Technologies, Grand Island, N.Y., USA. PBS with Tween 20 (PBST (10×)) was purchased from KPL, Gaithersburg, Md., USA. Tet System FBS-approved FBS US Source was purchased from Clontech, Mountain View, Calif., USA. Odyssey blocking buffer, 800CW goat anti-rabbit IgG (H+L) antibody, 680CW Goat anti-mouse IgG (H+L) and Licor Odyssey infrared scanner were purchased from Licor Biosciences, Lincoln, Nebr., USA. Tri-methyl-Lysine [A260]-MEKK2 antibody, MEKK2 and SMYD3 plasmids were made at Epizyme. Anti-flag monoclonal mouse antibody was purchased from Sigma, St. Louis, Mo., USA. Methanol was purchased from VWR, Franklin, Mass., USA. 10% Tween 20 was purchased from KPL, Inc., Gaithersburg, Md., USA. Fugene was purchased from Promega, Madison, Wis., USA. The Biotek ELx405 was purchased from BioTek, Winooski, Vt., USA. The multidrop combi was purchased from Thermo Scientific, Waltham, Mass., USA.
293T/17 adherent cells were maintained in growth medium (MEM/Glutamax medium supplemented with 10% v/v Tet System FBS and cultured at 37° C. under 5% CO2.
293T/17 cells were seeded in assay medium at a concentration of 33,333 cells per cm^2 in 30 mL medium per T150 flask and incubated at 37° C. under 5% CO2. Plasmids were prepared for delivery to cells by first mixing 1350 μL Opti-MEM with Fugene (81 μL) in a sterile Eppendorf and incubated for five minutes at room temperature (RT). MEKK2-flag (13.6 ug/T150) MEKK2 p3XFlag-CMV-14 with C-3XFlag and SMYD3 (0.151 ug/T150) SMYD3 p3XFlag-CMV-14 without C-3XFlag plasmids were aliquotted to a 1.7 mL sterile microfuge tube. The gene ID for MEKK2 and SMYD3 is NM_006609.3 and Q9H7B4, respectively. Entire volume of Opti-MEM/Fugene mixture was then added to a microfuge tube containing DNA plasmid, mixed and then incubated ×15 minutes at RT. The medium on the 293T/17 cells was refreshed, and the DNA/Fugene complex is added aseptically to each flask, rocked gently, and incubated at 37 C for 5 hours. Medium was then removed, and cells were washed once with PBS in the flask. Trypsin 0.05% (3 mL) was added and cells incubated for three minutes. Room temperature MEM+10% Tet system FBS was added and cells were mixed gently, and counted using the Vi-cell. Cells were seeded at 100,000 cells/mL in 50 μL MEM/10% Tet FBS/Pen/Strep to a 384 well black/clear poly-D-lysine coated plate containing test agent diluted in DMSO. The final top concentration of test compound was 40 μM. […] Plates were incubated×30 minutes at RT in low-airflow area, followed by incubation at 37° C. under 5% CO2 for 24 hours. Medium was aspirated from all wells of assay plates prior to fixation and permeabilization with ice cold (−20° C.) methanol (90 μL/well) for ten minutes. Plates were rinsed with PBS three times on BioTek ELx405. PBS was removed with a final aspiration, and Odyssey blocking buffer (50 μL/well) was added to each well and incubated for one hour at RT. Primary antibody solution was prepared (anti-trimethyl-MEKK2 at 1:600 dilution plus mouse anti-flag antibody at 1:10,000 dilution in diluent (Odyssey Blocking buffer+0.1% Tween 20)) and 20 μL per well was dispensed using the Multidrop Combi. Assay plates were then sealed with foil, and incubated overnight at 4° C. Plates were washed five times with PBS-Tween (1×) on Biotek ELx405 and blotted on paper towel to remove excess reagent. […]

Turning to `C=CS(=O)(=O)N1CC(NC(=O)c2cc(C3CC3)on2)C1` [Cpd. No. 1, 5-cyclopropyl-N-(1-(vinylsulfonyl)azetidin-3-yl) isoxazole-3-carboxamide], the IC50 in assay [1] and in assay [2] was more than 10 µM each time. For `C=CS(=O)(=O)N[C@H]1CC[C@H](NC(=O)c2cc(C3CC3)on2)CC1` [Cpd. No. 2, 5-cyclopropyl-N-((1r,4r)-4-(vinylsulfonamido)cyclohexyl) isoxazole-3-carboxamide], the IC50 in assay [1] was found to be 31 µM. For `O=C(NC1CCN(C(=O)CCl)CC1)c1cc(C2CC2)on1` [Cpd. No. 4, N-(1-(2-chloroacetyl)piperidin-4-yl)-5-cyclopropylisoxazole-3-carboxamide], the concentration for half-maximal inhibition (IC50) in assay [1] was determined as 33.5 µM; in assay [2], 6.65 µM. With `C=CC(=O)N1CCC(NC(=O)c2cc(C3CC3)on2)CC1` [Cpd. No. 5, N-(1-acryloylpiperidin-4-yl)-5-cyclopropylisoxazole-3-carboxamide], the IC50 in assay [1] is more than 100 µM; in assay [2] it was more than 10 µM. The corresponding values for `C=CC(=O)N[C@H]1CC[C@H](NC(=O)c2cc(C3CC3)on2)CC1` [compound 3, N-((1r,4r)-4-acrylamidocyclohexyl)-5-cyclopropylisoxazole-3-carboxamide] are 74.1 µM and more than 10 µM. For `C=CS(=O)(=O)N1CCC(NC(=O)c2cc(C3CC3)on2)C[C@@H]1C` (stereo partly drawn) [compound 6, 5-cyclopropyl-N-((2S)-2-methyl-1-(vinylsulfonyl)piperidin-4-yl) isoxazole-3-carboxamide], in that order: 5.27 µM and 2.12 µM. For `C=CS(=O)(=O)N1CCC(NC(=O)c2cc(C3CC3)on2)C[C@H]1C` (stereo partly drawn) [compound 7, 5-cyclopropyl-N-((2R)-2-methyl-1-(vinylsulfonyl)piperidin-4-yl) isoxazole-3-carboxamide], in that order: 3.68 µM and 2.19 µM. For the compound `C=CS(=O)(=O)N[C@H]1CC[C@@H](NC(=O)c2cc(C3CC3)on2)CC1` [compound 8, 5-cyclopropyl-N-((1s,4s)-4-(vinylsulfonamido)cyclohexyl) isoxazole-3-carboxamide], the IC50 in assay [1] and in assay [2] was more than 10 µM throughout. As to `C=CS(=O)(=O)N1CCC(NC(=O)c2cc(C3CC3)on2)CC1` [compound 9, 5-cyclopropyl-N-(1-(vinylsulfonyl)piperidin-4-yl) isoxazole-3-carboxamide], the IC50 in assay [1] came out at 31.7 µM. Same read-out and setting: then `C=CS(=O)(=O)N1CCC(NC(=O)c2cc(C3CC3)on2)C1` (centres unmarked) [compound 10, 5-cyclopropyl-N-(1-(vinylsulfonyl)pyrrolidin-3-yl) isoxazole-3-carboxamide], with more than 50 µM.
